Experimental data as given in patent US12077503B2, “Substituted cyclic amides and their use as herbicides” (FMC CORPORATION, priority 2015, dated 2024).

What was measured:
Format in all cases: in vivo
[1] = test system: pigweed (Amaranthus retroflexus); test: Test A postemergence; details: postemergence
Outline: (§1)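 Each rating is a visual injury score from 0 to 100 given about 10 d after treatment, judged against untreated controls kept alongside in the greenhouse. In loam soil–sand blend, seeds got a preemergence directed soil spray, while postemergence plants were 2 to 10 cm tall at spraying.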

[2] = test system: blackgrass (Alopecurus myosuroides); test: Test A postemergence; details: postemergence
Outline: as §1

[3] = test system: wheat (Triticum aestivum); test: Test A postemergence; details: postemergence
Outline: as §1

[4] = test system: ryegrass, Italian (Italian ryegrass, Lolium multiflorum); test: Test A postemergence; details: postemergence
Outline: as §1

[5] = test system: giant foxtail (Setaria faberii); test: Test A postemergence; details: postemergence
Outline: as §1

[6] = test system: Galium (catchweed bedstraw, Galium aparine); test: Test A postemergence; details: postemergence
Outline: as §1

[7] = test system: ragweed (common ragweed, Ambrosia elatior); test: Test A postemergence; details: postemergence
Outline: as §1

[8] = test system: barnyardgrass (Echinochloa crus-galli); test: Test A postemergence; details: postemergence
Outline: as §1

corn (Zea mays) = test: Test A postemergence; details: postemergence
Outline: as §1

Kochia (Kochia scoparia) [9] = test: Test A postemergence; details: postemergence
Outline: as §1

[10] = test system: sedge, umbrella (small-flower umbrella sedge, Cyperus difformis); test: Test B flooded paddy test; details: Flood, 250 g ai/ha; 0 to 100 scale where 0 is no effect and 100 is complete control; 13 to 15 d
Outline: (§2)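 Visual ratings (0 none to 100 complete control) are relative to untreated plants, taken 13–15 d after treatment in a greenhouse. Test material went straight into floodwater standing 3 cm above the soil, kept constant, on plants at the 2-leaf stage.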

[11] = test system: barnyardgrass (Echinochloa crus-galli); test: Test B flooded paddy test; details: Flood, 250 g ai/ha; 0 to 100 scale where 0 is no effect and 100 is complete control; 13 to 15 d
Outline: as §2

rice (Oryra sativa) = test: Test B flooded paddy test; details: Flood, 250 g ai/ha; 0 to 100 scale where 0 is no effect and 100 is complete control; 13 to 15 d
Outline: as §2

[12] = test system: ducksalad (Heteranthera limosa); test: Test B flooded paddy test; details: Flood, 250 g ai/ha; 0 to 100 scale where 0 is no effect and 100 is complete control; 13 to 15 d
Outline: as §2

[13] = test system: pigweed (Amaranthus retroflexus); test: Test A preemergence
[14] = test system: ryegrass, Italian (Italian ryegrass, Lolium multiflorum); test: Test A preemergence
Outline: as §1

[15] = test system: giant foxtail (Setaria faberii); test: Test A preemergence
Outline: as §1

[16] = test system: ragweed (common ragweed, Ambrosia elatior); test: Test A preemergence
Outline: as §1

[17] = test system: barnyardgrass (Echinochloa crus-galli); test: Test A preemergence
Outline: as §1

Kochia (Kochia scoparia) [18] = test: Test A preemergence
Outline: as §1

[19] = 125 g ai/ha, visual injury rating on 0 to 100 scale (0 no effect, 100 complete control), approx. 10 d
[20] = 500 g ai/ha, 0 to 100 scale, 0 no effect, 100 complete control
[21] = 125 g ai/ha, preemergence, 0 to 100 scale (0 no effect, 100 complete control)
[22] = Preemergence, 500 g ai/ha, visual injury approx. 10 d

CN1CC(c2ccc(C(F)(F)F)c(F)c2)C(C(=O)Nc2ccccc2F)C1=O (stereo not drawn) [Compound 399]
Pigweed plant response rating [1, 19]: 30
Plant response rating, Pigweed [1, 20]: 40
Blackgrass plant response rating [2, 19]: 40
Plant response rating, Blackgrass [2, 20]: 60
Wheat plant response rating [3, 19]: 40
Plant response rating, Wheat [3, 20]: 60
Ryegrass, Italian plant response rating [4, 19]: 40
Plant response rating, Ryegrass, Italian [4, 20]: 40
Foxtail, Giant plant response rating [5, 19]: 90
Plant response rating, Foxtail, Giant [5, 20]: 90
Galium plant response rating [6, 19]: 50
Plant response rating, Galium [6, 20]: 50
Ragweed plant response rating [7, 19]: 0
Plant response rating, Ragweed [7, 20]: 0
Barnyardgrass plant response rating [8, 19]: 90
Plant response rating, Barnyardgrass [8, 20]: 90
Corn plant response rating (corn (Zea mays); [19]): 50
Plant response rating, Corn (corn (Zea mays); [20]): 70
Kochia plant response rating (Kochia (Kochia scoparia) [9]; [19]): 50
Plant response rating, Kochia (Kochia (Kochia scoparia) [9]; [20]): 60
Plant response rating, Sedge, Umbrella [10]: 0
Plant response rating, Barnyardgrass [11]: 65
Plant response rating, Rice (rice (Oryra sativa)): 0
Plant response rating, Ducksalad [12]: 100
Plant response rating, Pigweed [13, 21]: 70
Pigweed plant response rating (0 to 100 scale, 0 is no effect, 100 is complete control) [13, 22]: 90
Plant response rating, Ryegrass, Italian [14, 21]: 20
Ryegrass, Italian plant response rating (0 to 100 scale, 0 is no effect, 100 is complete control) [14, 22]: 60
Plant response rating, Foxtail, Giant [15, 21]: 90
Foxtail, Giant plant response rating (0 to 100 scale, 0 is no effect, 100 is complete control) [15, 22]: 90
Plant response rating, Ragweed [16, 21]: 50
Ragweed plant response rating (0 to 100 scale, 0 is no effect, 100 is complete control) [16, 22]: 50
Plant response rating, Barnyardgrass [17, 21]: 90
Barnyardgrass plant response rating (0 to 100 scale, 0 is no effect, 100 is complete control) [17, 22]: 90
Plant response rating, Kochia (Kochia (Kochia scoparia) [18]; [21]): 80
Kochia plant response rating (0 to 100 scale, 0 is no effect, 100 is complete control) (Kochia (Kochia scoparia) [18]; [22]): 80
